Laboratory results published in the OPERA property sets (Mansouri et al. 2018).

Compound | logP
CNc1ccccn1 | 1.12
CCOc1cnccn1 | 1.28
N#Cc1cnccn1 | -0.01
CCOC(=O)c1cnccn1 | 0.28
CN(C)C(=O)c1ccccn1 | -0.45
CCCOc1ccccn1 | 2.38
CSc1ccccn1 | 1.71
CN(C)C(=O)c1cnccn1 | -0.8
Fc1ccccn1 | 0.84
COc1ccccn1 | 1.34
CCOc1ccccn1 | 1.81
CCCOc1cnccn1 | 1.84
CN(C)c1ccccn1 | 1.65

Further lines, results first:

logP | Compound
-0.23 | COC(=O)c1cnccn1
0.73 | COc1cnccn1
0.93 | CN(C)c1cnccn1
0.56 | CNc1cnccn1
0.7 | Clc1cnccn1
1.17 | CSc1cnccn1
-0.03 | CC(=O)Nc1cnccn1
0.29 | Fc1cnccn1
0.2 | CC(=O)c1cnccn1
0.69 | CCc1cnccn1
